Test results published in patent US9920069B2, “Compounds for treatment of fluoroquinolone-resistant bacteria” (The Board of Trustees of the University of Illinois, priority 2014, dated 2018).
Values after ≈ are worked out from the molar mass of the structure shown. Like-named read-outs stand apart in the source and are kept apart here.

Tests used:
physchem [1] = details: pH 7.4 PBS; three replicates ± SEM
Procedure: Enough PBS was added to make a 1 mg/mL solution. Compounds were then assessed by LC-MS and compared to a calibration curve to determine the solubility. […] Data shown is from three independent replicates±SEM. […] Between DMSO additions, the vial was vortexed and sonicated.
The compound was vortexed for ˜30 seconds before being placed into a bath sonicator (Cole Parmer, ultrasonic cleaner) for 1 h. […] The tubes were vortexed again for 30 s before being centrifuged at maximum speed (13,000×g) for 10 minutes. The supernatant was then filtered through a 0.22 μm syringe filter (Millipore Millex MP). […] Three independent replicates of each compound were performed. A calibration curve for each compound was generated from 1-400 μM by dissolving the compound in DMSO and making dilutions of the stock in DMSO. […] The concentration of the samples was calculated based on the calibration curves.

PA1586 = test: MIC, microdilution broth; type: cell-based, P. aeruginosa; details: Pseudomonas aeruginosa
Procedure: (§1) E. coli MG1655 and the ΔAcrB strain were obtained from Prof. Cari Vanderpool at UIUC.
(§2) Susceptibility testing was performed in triplicate using the microdilution broth method as outlined by the Clinical and Laboratory Standards Institute CLSI^52. MH broth was used.

VRE clinical isolate S51 = test: organism not typed; type: cell-based, E. faecium
Procedure: (§3) QRDR mutations were determined as described in the text using primers (primer sequences can be found in Table 7).
as §2

[2] = test system: VRE clinical isolate S235; test: organism not typed; type: cell-based, E. faecium
Procedure: as §3, §2

[3] = test system: VRE clinical isolate C27282; test: organism not typed; type: cell-based, E. faecium
Procedure: as §3, §2

[4] = test system: VRE clinical isolate U275; test: organism not typed; type: cell-based, E. faecium
Procedure: as §3, §2

[5] = test system: VRE clinical isolate C21190; test: organism not typed; type: cell-based, E. faecium
Procedure: as §3, §2

[6] = test system: VRE clinical isolate U503; test: organism not typed; type: cell-based, E. faecium
Procedure: as §3, §2

VRE clinical isolate S34 = test: organism not typed; type: cell-based, E. faecium
Procedure: as §3, §2

[7] = test system: VRE clinical isolate U464; test: organism not typed; type: cell-based, E. faecium
Procedure: as §3, §2

[8] = test system: VRE clinical isolate S226; test: organism not typed; type: cell-based, E. faecium
Procedure: as §3, §2

VRE clinical isolate U63 = test: organism not typed; type: cell-based, E. faecium
Procedure: as §3, §2

[9] = test system: VRE clinical isolate U563; test: organism not typed; type: cell-based, E. faecium
Procedure: as §3, §2

[10] = test system: S. aureus 29213 (WT GyrA and WT ParC); test: microbe, parasite or virus in culture; type: cell-based; details: Staphylococcus aureus; WT GyrA and WT ParC; read-out: MIC against S. aureus 29213
Procedure: as §2

[11] = test system: VRE clinical isolate S557; test: organism not typed; type: cell-based, E. faecium; details: read-out: MIC
[12] = test system: VRE clinical isolate S234; test: organism not typed; type: cell-based, E. faecalis; details: read-out: MIC
A. baumannii KB349 = test: MIC, microdilution broth; type: cell-based; details: Acinetobacter baumannii
Procedure: as §1, §2

A. baumannii KB304 = test: MIC, microdilution broth; type: cell-based; details: Acinetobacter baumannii
Procedure: as §1, §2

[13] = test system: MRSA clinical isolate SAU.555; test: MIC, microdilution broth; type: cell-based, S. aureus; details: Staphylococcus aureus
Procedure: as §2

[14] = test system: MRSA clinical isolate SAU.419; test: MIC, microdilution broth; type: cell-based, S. aureus; details: Staphylococcus aureus, MRSA, read-out: MIC
Procedure: as §2

[15] = test system: MRSA clinical isolate SAU.3021; test: MIC, microdilution broth; type: cell-based, S. aureus; details: Staphylococcus aureus, MRSA, read-out: MIC
Procedure: as §2

[16] = test system: MRSA clinical isolate SAU.3026; test: MIC, microdilution broth; type: cell-based, S. aureus; details: Staphylococcus aureus, MRSA, read-out: MIC
Procedure: as §2

[17] = test system: VRE clinical isolate C28036; test: microbe, parasite or virus in culture; type: cell-based, Ent. Spp.; details: Enterococcus
Procedure: as §3, §2

physchem [18] = details: organic solvent or mixture, thermodynamic from solid
VRE clinical isolates = test: Panel of VRE clinical isolates (FIG. 2B); type: cell-based, Enterococcus; details: n=22, in words
MRSA clinical isolates = test: Panel of MRSA clinical isolates (FIG. 2A); type: cell-based, S. aureus; details: n=21, in words
Enterococcus ATCC 29212 = test: organism not typed; type: cell-based, E. faecalis; details: ATCC 29212, E. faecalis; gyrA WT, parC WT; read-out: MIC
VRE clinical isolate D1 = test: organism not typed; type: cell-based, E. faecium; details: read-out: MIC
[19] = test system: MRSA clinical isolate SAU.495; test: microbe, parasite or virus in culture; type: cell-based, S. aureus; details: Staphylococcus aureus
Procedure: as §2

[20] = test system: MRSA clinical isolate SAU.493; test: microbe, parasite or virus in culture; type: cell-based, S. aureus; details: Staphylococcus aureus
Procedure: as §2

[21] = test system: MRSA clinical isolate SAU.710; test: microbe, parasite or virus in culture; type: cell-based, S. aureus; details: Staphylococcus aureus
Procedure: as §2

[22] = test system: MRSA clinical isolate SAU.494; test: microbe, parasite or virus in culture; type: cell-based, S. aureus; details: Staphylococcus aureus
Procedure: as §2

[23] = test system: MRSA clinical isolate SAU.489; test: microbe, parasite or virus in culture; type: cell-based, S. aureus; details: Staphylococcus aureus
Procedure: as §2

[24] = test system: MRSA clinical isolate SAU.708; test: microbe, parasite or virus in culture; type: cell-based, S. aureus; details: Staphylococcus aureus
Procedure: as §2

[25] = test system: MRSA clinical isolate SAU.709; test: microbe, parasite or virus in culture; type: cell-based, S. aureus; details: Staphylococcus aureus
Procedure: as §2

[26] = test system: MRSA clinical isolate SAU.496; test: microbe, parasite or virus in culture; type: cell-based, S. aureus; details: Staphylococcus aureus
Procedure: as §2

[27] = test system: MRSA clinical isolate SAU.491; test: microbe, parasite or virus in culture; type: cell-based, S. aureus; details: Staphylococcus aureus
Procedure: as §2

E. coli ATCC 25922 = test: microbe, parasite or virus in culture; type: cell-based; details: Escherichia coli, ATCC25922, gyrA none, parC none
Procedure: as §1, §2

P. aeruginosa PAO1 = test: microbe, parasite or virus in culture; type: cell-based; details: Pseudomonas aeruginosa, gyrA none, parC none
Procedure: as §1, §2

A. baumannii ATCC 19606 = test: microbe, parasite or virus in culture; type: cell-based; details: Acinetobacter baumannii, ATCC19606, gyrA none, parC none
Procedure: as §1, §2

[28] = test system: VRE clinical isolate S206; test: organism not typed; type: cell-based, E. faecalis
Procedure: as §3, §2

Enterococcus ATCC 19433 = test: organism not typed; type: cell-based, E. faecalis; details: ATCC 19433, E. faecalis; gyrA WT, parC WT; read-out: MIC
[29] = test system: MRSA clinical isolate SAU.3024; test: MIC, microdilution broth; type: cell-based, S. aureus; details: Staphylococcus aureus
Procedure: as §2

[30] = test system: MRSA clinical isolate SAU.2996; test: MIC, microdilution broth; type: cell-based, S. aureus; details: Staphylococcus aureus, MRSA, read-out: MIC
Procedure: as §2

[31] = test system: MRSA clinical isolate SAU.1118; test: MIC, microdilution broth; type: cell-based, S. aureus; details: Staphylococcus aureus
Procedure: as §2

[32] = test system: MRSA clinical isolate SAU.492; test: microbe, parasite or virus in culture; type: cell-based, S. aureus; details: Staphylococcus aureus
Procedure: as §2

[33] = subcutaneously, orally, or by IP injection; cited from earlier work
[34] = test system: K. pneuomoniae, S. aureus, or M. tuberculosis; details: mice infected with various bacteria; cited from earlier work

SMILES: CCCn1c(=O)cc(C)c2cc3c(C)cc(=O)n4c3c(c21)OC4 [DNM-8]
- Solubility in pH 7.4 PBS (physchem [1]): 68 μM
- MIC (PA1586): > 32 µg/mL
- MIC (VRE clinical isolate S51): 1 µg/mL (≈ 3.22 µM)
- MIC [2]: 1 µg/mL (≈ 3.22 µM)
- MIC [3]: 8 µg/mL (≈ 25.8 µM)
- MIC [4]: 4 µg/mL (≈ 12.9 µM)
- MIC [5]: 8 µg/mL (≈ 25.8 µM)
- MIC [6]: 4 µg/mL (≈ 12.9 µM)
- MIC (VRE clinical isolate S34): 2 µg/mL (≈ 6.44 µM)
- MIC [7]: 2 µg/mL (≈ 6.44 µM)
- MIC [8]: 1 µg/mL (≈ 3.22 µM)
- MIC (VRE clinical isolate U63): 4 µg/mL (≈ 12.9 µM)
- MIC [9]: 4 µg/mL (≈ 12.9 µM)
- MIC [10]: 16 µg/mL (≈ 51.6 µM)
- MIC [11]: 0.5 µg/mL (≈ 1.61 µM)
- MIC [12]: 0.5 µg/mL (≈ 1.61 µM)
- MIC (A. baumannii KB349): > 32 µg/mL
- MIC (A. baumannii KB304): > 32 µg/mL
- MIC [13]: 0.5 µg/mL (≈ 1.61 µM)
- MIC [14]: 0.25 µg/mL (≈ 0.806 µM)
- MIC [15]: 0.125 µg/mL (≈ 0.403 µM)
- MIC [16]: 0.25 µg/mL (≈ 0.806 µM)
- MIC [17]: 1 µg/mL (≈ 3.22 µM)
- solubility (physchem [18]): 11.3 mM (≈ 3510 µg/mL)
- sensitivity of VRE clinical isolates (VRE clinical isolates): sensitive
- sensitivity of MRSA clinical isolates (MRSA clinical isolates): sensitive
- MIC (Enterococcus ATCC 29212): 8 µg/mL (≈ 25.8 µM)
- MIC (VRE clinical isolate D1): 0.5 µg/mL (≈ 1.61 µM)
- MIC ([19]; read-out: MIC): 0.25 µg/mL (≈ 0.806 µM)
- MIC ([20]; read-out: MIC): 0.25 µg/mL (≈ 0.806 µM)
- MIC ([21]; read-out: MIC): 0.125 µg/mL (≈ 0.403 µM)
- MIC ([22]; read-out: MIC): 0.25 µg/mL (≈ 0.806 µM)
- MIC ([23]; read-out: MIC): 0.25 µg/mL (≈ 0.806 µM)
- MIC ([24]; read-out: MIC): 1 µg/mL (≈ 3.22 µM)
- MIC ([25]; read-out: MIC): 0.25 µg/mL (≈ 0.806 µM)
- MIC ([26]; read-out: MIC): 0.25 µg/mL (≈ 0.806 µM)
- MIC ([27]; read-out: MIC): 0.5 µg/mL (≈ 1.61 µM)
- MIC (E. coli ATCC 25922): > 32 µg/mL
- MIC (P. aeruginosa PAO1): > 32 µg/mL
- MIC (A. baumannii ATCC 19606): > 32 µg/mL
- MIC [28]: 4 µg/mL (≈ 12.9 µM)
- MIC (Enterococcus ATCC 19433): 16 µg/mL (≈ 51.6 µM)

SMILES: CN[C@H](CC(C)C)C(=O)N[C@H]1C(=O)N[C@@H](CC(N)=O)C(=O)N[C@H]2C(=O)N[C@H]3C(=O)N[C@H](C(=O)N[C@H](C(=O)O)c4cc(O)cc(O)c4-c4cc3ccc4O)[C@H](O)c3ccc(c(Cl)c3)Oc3cc2cc(c3O[C@@H]2O[C@H](CO)[C@@H](O)[C@H](O)[C@H]2O[C@H]2C[C@](C)(N)[C@H](O)[C@H](C)O2)Oc2ccc(cc2Cl)[C@H]1O [VANC, vancomycin, reference compound]
- MIC [10]: 1 µg/mL (≈ 0.69 µM)
- MIC [29]: 2 µg/mL (≈ 1.38 µM)
- MIC [30]: 1 µg/mL (≈ 0.69 µM)
- MIC [31]: 2 µg/mL (≈ 1.38 µM)
- MIC [15]: 1 µg/mL (≈ 0.69 µM)
- MIC [19]: 2 µg/mL (≈ 1.38 µM)
- MIC [20]: 1 µg/mL (≈ 0.69 µM)
- MIC [21]: 2 µg/mL (≈ 1.38 µM)
- MIC [32]: 1 µg/mL (≈ 0.69 µM)
- MIC [22]: 1 µg/mL (≈ 0.69 µM)
- MIC [23]: 2 µg/mL (≈ 1.38 µM)
- MIC [24]: 2 µg/mL (≈ 1.38 µM)
- MIC [25]: 1 µg/mL (≈ 0.69 µM)
- MIC [26]: 1 µg/mL (≈ 0.69 µM)
- MIC [27]: 2 µg/mL (≈ 1.38 µM)

SMILES: Cc1cc(=O)n2c3c(c4c(cc13)c(CO)cc(=O)n4C)OC2 [nybomycin]
- tolerability in mice [33]: well tolerated
- activity in infected mice [34]: no activity
